“And” between values parts separate entries of the source, which are not always exact repeats. Equal entries are not always repeated. The source made the active and inactive calls.
How the values were obtained:
Estrogen receptor beta = Estrogen receptor beta (Homo sapiens, UniProt Q92731); assay: blockers of SRC-3 recruitment to ERβ – biochemical, ELISA, streptavidin-HRP readout, orthogonal assay, confirmation (AID 1060)
[1] = target: Serine/threonine-protein phosphatase (Homo sapiens, UniProt Q9BPW0); assay: inhibition of protein phosphatase 5 activity – biochemical, fluorescence, dose response (AID 2395)
[2] = target: T1, Short transient receptor potential channel 4 (Mus musculus, UniProt Q9QUQ5); assay: calcium entry via TRPC4 opening agents – cell-based, HEK293 TRPC4/mu-opioid, Fluo-4 calcium, dose response (AID 434937); assay type: functional
T1 sequence (Q9QUQ5 whole entry): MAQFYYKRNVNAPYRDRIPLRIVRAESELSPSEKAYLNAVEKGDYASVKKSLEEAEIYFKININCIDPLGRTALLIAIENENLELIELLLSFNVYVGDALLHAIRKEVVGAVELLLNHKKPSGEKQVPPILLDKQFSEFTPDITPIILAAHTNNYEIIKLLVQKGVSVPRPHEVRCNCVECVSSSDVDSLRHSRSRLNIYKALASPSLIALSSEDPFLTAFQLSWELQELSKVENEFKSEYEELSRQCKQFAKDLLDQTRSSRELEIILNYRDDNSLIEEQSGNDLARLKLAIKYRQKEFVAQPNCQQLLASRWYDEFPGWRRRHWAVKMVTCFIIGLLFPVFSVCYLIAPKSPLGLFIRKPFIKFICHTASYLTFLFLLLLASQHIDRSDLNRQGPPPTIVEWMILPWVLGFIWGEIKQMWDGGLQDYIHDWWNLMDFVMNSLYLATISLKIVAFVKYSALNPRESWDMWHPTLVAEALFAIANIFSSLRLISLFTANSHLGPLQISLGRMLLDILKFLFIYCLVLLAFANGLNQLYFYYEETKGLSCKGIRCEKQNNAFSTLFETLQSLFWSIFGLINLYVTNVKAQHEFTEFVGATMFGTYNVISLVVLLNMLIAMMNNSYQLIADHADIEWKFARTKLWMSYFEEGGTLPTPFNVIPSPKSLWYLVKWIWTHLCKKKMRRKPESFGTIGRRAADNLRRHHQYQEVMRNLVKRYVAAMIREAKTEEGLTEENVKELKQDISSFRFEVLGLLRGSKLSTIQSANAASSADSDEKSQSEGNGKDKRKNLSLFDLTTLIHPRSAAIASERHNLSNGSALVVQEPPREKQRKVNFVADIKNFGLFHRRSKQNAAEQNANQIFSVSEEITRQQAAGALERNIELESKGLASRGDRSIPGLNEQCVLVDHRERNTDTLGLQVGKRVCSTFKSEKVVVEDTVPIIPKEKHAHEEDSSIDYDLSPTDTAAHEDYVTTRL

BJ = assay: cells; assay type: functional, cell-based; conditions: Homo sapiens
[3] = target: T2, Tyrosine-protein phosphatase non-receptor type 12 (Homo sapiens, UniProt Q05209); assay: SAR Selectivity Analysis of small molecule inhibitors of PEST using pCAP in a fluorescence assay. [Related pubchem assays (depositor defined):AID1779, AID1784, AID2135]; assay type: functional
T2 sequence (Q05209 whole entry): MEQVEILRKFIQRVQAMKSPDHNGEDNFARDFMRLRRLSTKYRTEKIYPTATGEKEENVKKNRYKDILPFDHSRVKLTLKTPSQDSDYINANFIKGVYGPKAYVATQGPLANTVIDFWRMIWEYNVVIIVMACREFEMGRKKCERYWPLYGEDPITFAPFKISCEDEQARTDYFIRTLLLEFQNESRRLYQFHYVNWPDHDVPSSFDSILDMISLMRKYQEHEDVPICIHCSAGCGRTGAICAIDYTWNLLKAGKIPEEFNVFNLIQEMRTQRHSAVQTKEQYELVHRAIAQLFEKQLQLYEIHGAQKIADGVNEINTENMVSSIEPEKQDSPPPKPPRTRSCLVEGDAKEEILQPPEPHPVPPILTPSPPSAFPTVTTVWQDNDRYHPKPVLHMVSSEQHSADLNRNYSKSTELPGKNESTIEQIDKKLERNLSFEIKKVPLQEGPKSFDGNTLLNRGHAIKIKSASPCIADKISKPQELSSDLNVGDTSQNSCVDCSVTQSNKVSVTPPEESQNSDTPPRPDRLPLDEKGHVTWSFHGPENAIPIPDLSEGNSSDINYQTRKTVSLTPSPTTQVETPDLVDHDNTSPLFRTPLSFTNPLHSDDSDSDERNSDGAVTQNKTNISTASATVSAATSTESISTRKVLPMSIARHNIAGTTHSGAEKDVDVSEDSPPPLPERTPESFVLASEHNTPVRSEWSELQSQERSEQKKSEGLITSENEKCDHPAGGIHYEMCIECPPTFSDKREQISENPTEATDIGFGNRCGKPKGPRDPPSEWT

[4] = target: Dual specificity protein phosphatase 3 (Homo sapiens, UniProt P51452); assay: VHR1 phosphatase inhibitors, biochemical (AID 1878)
Chain of Dual specificity protein phosphatase 3 (P51452 whole entry): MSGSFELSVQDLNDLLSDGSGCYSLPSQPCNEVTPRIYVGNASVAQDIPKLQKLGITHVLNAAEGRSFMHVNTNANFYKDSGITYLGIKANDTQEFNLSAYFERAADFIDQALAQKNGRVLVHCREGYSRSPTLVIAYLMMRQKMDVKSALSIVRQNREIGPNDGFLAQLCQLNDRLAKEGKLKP

Chain of Serine/threonine-protein phosphatase (Q9BPW0 whole entry): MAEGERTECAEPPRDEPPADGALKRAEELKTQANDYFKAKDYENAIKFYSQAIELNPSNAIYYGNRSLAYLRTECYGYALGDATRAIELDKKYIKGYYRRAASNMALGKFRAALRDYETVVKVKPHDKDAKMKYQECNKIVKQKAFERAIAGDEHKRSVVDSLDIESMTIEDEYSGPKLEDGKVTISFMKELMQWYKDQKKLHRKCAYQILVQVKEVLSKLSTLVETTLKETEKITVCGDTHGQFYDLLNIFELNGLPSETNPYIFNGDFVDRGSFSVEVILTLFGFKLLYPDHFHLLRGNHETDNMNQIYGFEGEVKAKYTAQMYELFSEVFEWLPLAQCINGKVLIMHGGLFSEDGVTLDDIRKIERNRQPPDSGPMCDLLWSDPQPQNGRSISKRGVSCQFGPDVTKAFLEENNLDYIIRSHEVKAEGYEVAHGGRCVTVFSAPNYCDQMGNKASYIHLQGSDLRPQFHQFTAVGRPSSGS
Chain of Estrogen receptor beta (Q92731 whole entry): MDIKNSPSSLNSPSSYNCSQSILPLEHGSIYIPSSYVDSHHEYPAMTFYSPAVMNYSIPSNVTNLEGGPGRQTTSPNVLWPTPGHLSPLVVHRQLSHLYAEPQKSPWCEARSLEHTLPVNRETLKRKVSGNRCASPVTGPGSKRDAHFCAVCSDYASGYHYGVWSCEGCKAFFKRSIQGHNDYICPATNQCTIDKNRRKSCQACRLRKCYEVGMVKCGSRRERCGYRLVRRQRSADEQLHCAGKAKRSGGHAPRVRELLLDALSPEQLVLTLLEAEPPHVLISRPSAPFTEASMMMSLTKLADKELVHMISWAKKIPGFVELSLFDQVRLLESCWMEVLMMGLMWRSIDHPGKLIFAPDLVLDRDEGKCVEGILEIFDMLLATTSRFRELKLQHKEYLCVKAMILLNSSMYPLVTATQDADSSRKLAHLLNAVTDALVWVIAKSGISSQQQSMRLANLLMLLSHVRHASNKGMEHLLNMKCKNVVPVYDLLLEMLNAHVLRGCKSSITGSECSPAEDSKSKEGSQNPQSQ

COc1ccc(C(=O)Nc2nc3c(s2)Cc2cc(OC)ccc2-3)cc1
IC50 (Estrogen receptor beta): < 23 nM (not active)

O=C1CCCC2=C1C1(O)C(=O)c3ccccc3C1(O)O2 (stereo unspecified)
IC50 [1]: > 828 nM (active)

CCN1/C(=C/c2ccc3cc(C)ccc3[n+]2CC)Sc2cc(C)c(C)cc21
EC50 [2]: 11900 nM (active)
EC50 (BJ): 2340 nM (active)

O=C(O)COc1ccc(/C=N/NC(=O)c2ccc(-c3csc(Nc4ccc(Cl)cc4)n3)cc2)cc1
IC50 [3]: 334 nM (active) and 325 nM (active)
IC50 [4]: 1300 nM (active)

From ChEMBL document CHEMBL1201862, “PubChem BioAssay data set” (2004)
